Patent US20230348459A1, “PYRROLIDINE COMPOUND AND USE THEREOF” (SIMCERE PHARMACEUTICAL CO., LTD., priority 2020, published 2023)

Experiments:
[1] = Plasma protein binding rate, equilibrium dialysis, human plasma; type: in vitro ADME; conditions: pH 7.4, 6 hours dialysis
Description: The protein binding rate of the compounds of the present invention in the plasma of five species (human, monkey, dog, rat and mouse) was determined by the following test method.
• 1. Human plasma (BioIVT), beagle dog plasma (BioIVT), SD rat plasma (BioIVT), CD-1 mouse plasma (BioIVT); • 2. 96-well equilibrium dialysis plate (HTDialysis LLC, Gales Ferry, CT, HTD96B), equilibrium dialysis membrane (MWCO 12-14 K, #1101); • 3. Positive control compound warfarin; • 4. ABI QTrap 5500 liquid chromatography-mass spectrometry.
1. Preparation of a buffer with a concentration of 100 mM sodium phosphate and 150 mM NaCl: an alkaline solution with a concentration of 14.2 g/L Na2HPO4 and 8.77 g/L NaCl was prepared with ultrapure water, and an acidic solution with a concentration of 12.0 g/L NaH2PO4 and 8.77 g/L NaCl was prepared with ultrapure water. The alkaline solution was titrated with the acidic solution to pH 7.4 to prepare a buffer with a concentration of 100 mM sodium phosphate and 150 mM NaCl.
2. Preparation of dialysis membrane: the dialysis membrane was soaked in ultrapure water for 60 minutes to separate the membrane into two pieces, then soaked in 20% ethanol for 20 minutes, and finally soaked in the buffer used for dialysis for 20 minutes.
3. Preparation of plasma: the frozen plasma was quickly thawed at room temperature, then the plasma was centrifuged at 3,220 g at 4° C. for 10 min to remove clots, and the supernatant was collected into a new centrifuge tube. The pH of the plasma was measured and recorded, and the plasma with pH of 7-8 was used.
3. Preparation of compound-containing plasma samples: 10 mM stock solution of compounds of the present invention or positive control compounds were diluted with DMSO to obtain 200 µM working solution. […]
The peak areas of the compounds on the buffer side and the plasma side were determined. […]
All the data was calculated by the Microsoft Excel software. The plasma protein binding rate values of the compounds of the present invention were calculated.

[2] = target: voltage-gated potassium ion channel hERG (Homo sapiens (Human), UniProt Q12809); assay: hERG manual patch clamp in HEK293 cells; type: cell-based; conditions: HEK293 cells stably expressing hERG
Description: HEK293 cell line stably expressing hERG ion channel (Cat. No. K1236) was purchased from Invitrogen. The cell line was cultured in the medium containing 85% DMEM, 10% dialysis fetal bovine serum, 0.1 mM non-essential amino acid solution, 100 U/mL penicillin-streptomycin solution, 25 mM HEPES, 5 µg/mL blasticidin and 400 µg/mL geneticin. When the cell density increased to 40%-80% of the bottom area of the culture dish, trypsin was used for digestion and passage, and the cells were passaged three times weekly. Before the experiment, the cells were cultured in a 6 cm culture dish at a density of 5 × 10^5 and induced by adding 1 µg/mL doxycycline for 48 hours, and then the cells were digested and inoculated on glass slides for subsequent manual patch clamp experiments.
1) According to the SOP-ADMET-MAN-007 standard operating procedure, the compounds to be tested were dissolved with DMSO and prepared into the stock solution with a final concentration of 10 mM. […]
10. Determination of the inhibitory effect of the compounds to be tested on hERG current: First, the hERG current measured in extracellular fluid containing 0.1% DMSO was used as the detection baseline. […] By waiting for about 5 minutes after the completion of each perfusion, the compound was allowed to fully act on the cells, and the hERG currents were simultaneously recorded. After the currents to be recorded became stable, the last 5 hERG current values were recorded, and the average value thereof was taken as the final current value thereof at a specific concentration. […] In addition, the positive compound dofelide was detected with the same patch clamp system both before and after the completion of the test compound experiment to ensure the reliability and sensitivity of the entire detection system.
1) After perfusion of blank solvent or compound gradient solution, the average value of 5 continuous current values obtained in a stable state is calculated as “tail current valueblank” and “tail current valuecompound”, respectively.
2) The percent current inhibition was calculated by the following formula. […]

Sequence of voltage-gated potassium ion channel hERG (Q12809 whole entry): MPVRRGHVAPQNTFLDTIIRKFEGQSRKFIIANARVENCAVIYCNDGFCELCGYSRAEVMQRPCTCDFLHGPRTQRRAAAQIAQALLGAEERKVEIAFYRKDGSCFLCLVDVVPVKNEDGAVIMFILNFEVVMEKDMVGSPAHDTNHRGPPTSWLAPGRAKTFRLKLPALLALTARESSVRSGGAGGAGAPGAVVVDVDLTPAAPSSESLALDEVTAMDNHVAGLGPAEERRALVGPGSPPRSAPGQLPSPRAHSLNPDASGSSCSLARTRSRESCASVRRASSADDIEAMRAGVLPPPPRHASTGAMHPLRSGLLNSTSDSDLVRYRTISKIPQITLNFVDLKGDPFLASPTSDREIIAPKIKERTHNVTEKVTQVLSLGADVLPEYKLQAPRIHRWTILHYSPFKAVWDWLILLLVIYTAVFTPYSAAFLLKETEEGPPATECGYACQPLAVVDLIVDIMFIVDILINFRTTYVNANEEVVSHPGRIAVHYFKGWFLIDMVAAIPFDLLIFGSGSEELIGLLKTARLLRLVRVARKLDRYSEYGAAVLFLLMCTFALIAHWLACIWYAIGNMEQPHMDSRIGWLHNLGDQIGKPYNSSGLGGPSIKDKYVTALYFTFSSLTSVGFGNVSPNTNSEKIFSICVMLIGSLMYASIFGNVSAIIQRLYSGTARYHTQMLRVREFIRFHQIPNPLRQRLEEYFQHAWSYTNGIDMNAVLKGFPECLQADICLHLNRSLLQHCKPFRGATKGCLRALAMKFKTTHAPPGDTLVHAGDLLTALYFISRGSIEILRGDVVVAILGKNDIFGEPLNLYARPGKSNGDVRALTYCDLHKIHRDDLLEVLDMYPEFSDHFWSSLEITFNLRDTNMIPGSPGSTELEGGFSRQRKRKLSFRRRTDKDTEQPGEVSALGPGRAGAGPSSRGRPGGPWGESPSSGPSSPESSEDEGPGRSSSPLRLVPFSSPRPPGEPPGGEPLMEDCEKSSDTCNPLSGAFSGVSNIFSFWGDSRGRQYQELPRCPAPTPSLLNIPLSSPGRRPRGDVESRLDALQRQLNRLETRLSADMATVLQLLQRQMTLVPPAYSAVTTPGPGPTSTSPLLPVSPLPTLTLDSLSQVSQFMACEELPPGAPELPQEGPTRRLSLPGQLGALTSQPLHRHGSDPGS

SMILES | fraction unbound at 6 h, 1 µM [1] | IC50 [2]
C[C@@H]1Cc2c([nH]c3ccccc23)C(c2c(F)cc(N[C@H]3CCN(CCCF)C3)cc2F)N1CC(F)(F)F (stereo in doubt) [Example 4, (S)-N-(3,5-difluoro-4-((1S,3R)-3-methyl-2-(2,2,2-trifluoroethyl)-2,3,4,9-tetrahydro-1H-pyridino[3,4-b]indol-1-yl)phenyl)-1-(3-fluoropropyl)pyrrolidin-3-amine] | 0.002 | 3.7 µM
C[C@@H]1Cc2c([nH]c3ccccc23)C(c2c(F)cc(N[C@H]3CCN(CCCF)C3)cc2F)N1CC(F)(F)CO (stereo in doubt) [Example 7, 3-((1S,3R)-1-(2,6-difluoro-4-(((S)-1-(3-fluoropropyl)pyrrolidin-3-yl)amino)phenyl)-3-methyl-3,4-dihydro-1H-pyridino [3,4-b]indole-2(9H)-yl)-2,2-difluoropropane-1-ol] | 0.005 | 8.4 µM
C[C@@H]1Cc2c([nH]c3ccccc23)[C@@H](c2ccc(N[C@H]3CCN(CCCF)C3)cn2)N1CC(F)(F)F [Example 3, N-((S)-1-(3-fluoropropyl)pyrrolidin-3-yl)-6-((1S,3R)-3-methyl-2-(2,2,2-trifluoroethyl)-2,3,4,9-tetrahydro-1H-pyridino[3,4-b]indol-1-yl)pyridine-3-amine] | 0.012 | 10 µM
